# According to US7989482B2, “Indoline anti-cancer agents” (Joyant Pharmaceuticals, Inc., priority 2008, dated 2011):
# Where two headings read alike, the source gives them in different places.
# Columns and labels:
# HCC461 = test: Cell profiling, HCC461 tumor cell line; assay type: cell-based; conditions: Tumor cell line HCC461, origin Lung
# Description: (§1) Cell viability assays were run using standard protocols known to those of skill in art. Cells were plated in 96 well plates at the density of 3,000-10,000 cells per well. Twenty four hours later, cells were treated with increasing concentration of test compounds (1 nM to 1 μM). After another 48 hour, cell survival was measured using CELL-TITER-GLO® reagent (Promega) following the protocol provided by the manufacture. The IC50 value was determined as the concentration of test compound that kills 50% of the cell population.
# (§2) The compound of Example 46 was profiled in tumor cell lines derived from a variety of origins.
# NCI-H460 = test: Cell profiling, NCI-H460 tumor cell line; assay type: cell-based; conditions: Homo sapiens; Tumor cell line NCI-H460, origin Lung
# Description: as §1, §2
# BT474 = test: Cell profiling, BT474 tumor cell line; assay type: cell-based; conditions: Homo sapiens, BT-474; Tumor cell line BT474, origin Breast
# Description: as §1, §2
# A2058 cells = test: Cell viability assay (CELL-TITER-GLO) in A2058 cells; assay type: cell-based; conditions: Homo sapiens
# Description: as §1
# (§3) Cell viability data generated according to the protocol described in Example 97 was generated for representative compounds in A2058 and U937 cells.
# BxPC3 = test: Cell profiling, BxPC3 tumor cell line; assay type: cell-based; conditions: Homo sapiens, BXPC-3; Tumor cell line BxPC3, origin Pancreas
# Description: as §1, §2
# U937 cells = test: Cell viability assay (CELL-TITER-GLO) in U937 cells; assay type: cell-based; conditions: Homo sapiens
# Description: as §1, §3
# OVCAR 3 = test: Cell profiling, OVCAR 3 tumor cell line; assay type: cell-based; conditions: Homo sapiens; Tumor cell line OVCAR 3, origin Ovarian
# Description: as §1, §2
# LOVO = test: Cell profiling, LOVO tumor cell line; assay type: cell-based; conditions: Homo sapiens, origin Colon
# Description: as §1, §2
# HT29 = test: Cell profiling, HT29 tumor cell line; assay type: cell-based; conditions: Homo sapiens, HT-29; Tumor cell line HT29, origin Colon
# Description: as §1, §2
# HCC1437 = test: Cell profiling, HCC1437 tumor cell line; assay type: cell-based; conditions: Tumor cell line HCC1437, origin Lung
# Description: as §1, §2
# COLO205 = test: Cell profiling, COLO205 tumor cell line; assay type: cell-based; conditions: Homo sapiens, COLO 205; Tumor cell line COLO205, origin Colon
# Description: as §1, §2
# DU145 = test: Cell profiling, DU145 tumor cell line; assay type: cell-based; conditions: Homo sapiens, DU-145; Tumor cell line DU145, origin Prostate
# Description: as §1, §2
# HCT116 = test: Cell profiling, HCT116 tumor cell line; assay type: cell-based; conditions: Homo sapiens, HCT-116; Tumor cell line HCT116, origin Colon
# Description: as §1, §2
# A375 = test: Cell profiling, A375 tumor cell line; assay type: cell-based; conditions: Homo sapiens, A-375; Tumor cell line A375, origin Skin
# Description: as §1, §2
# [1] = tested on: HCT116 human colon carcinoma xenograft; test: HCT116 human colon carcinoma xenograft model in mice; assay type: in vivo; conditions: 20 mg/kg per dose intravenously, days 9, 11, 14, 16, 18 and 21 post tumor cell injection
# Description: Compound of Example 73 was administered at 20 mg/kg per dose. Injections were given at days 9, 11, 14, 16, 18 and 21 post tumor cell injection.
# The compound of Example 73 was tested in HCT116 human colon carcinoma xenograft and Miapaca pancreatic cancer xenograft tumor models in 5- to 6-week-old Harlan Athymic Nude-Foxnlnu mice.
# Preparation of Tumor Cells • 1. Tumor cells were cultured in complete RPMI medium and excluded any contamination • 2. When cells are 70-80% confluent, medium was removed and cells were washed with serum free media, trypsinized, harvested and washed with serum free media for three times by centrifuge. After final washing, cells were counted and mixed with matrigel at 1:1 ration in volume. Cells were suspended in a volume that 200 μl contains required number of cells per injection.
# Preparation of the Injection • 1. Clean and sterilize the inoculation area of the mice with iodine solutions and ethanol. • 2. Take cells with 1-cc syringe. • 3. Inject tumor cells (1×10^7) subcutaneously (s.c.) into the lower flank of the mice. • 4. When tumors reached 200-300 mm^3 in size, mice were randomized into treatment groups of five mice per group. • 5. Mice were weighed and tumors measured using vernier calipers two times per week. Tumor volume in mm3 is calculated by the formula: Volume (mm^3)=(length×width^2)/2. […]
# [2] = A2058, 48 h, A2058 cells, 48 hour treatment, cell viability, read-out: IC50 (μM) A2058
# [3] = U-937, 48 h, U937 cells, 48 hour treatment, cell viability, read-out: IC50 (μM) U937
# [4] = A2058 cells, 48 hour treatment, cell viability, read-out: IC50 (μM) A2058
# [5] = U-937, U937 cells, 48 hour treatment, cell viability, read-out: IC50 (μM) U937
compound,measurement,setting,value
COC(=O)c1coc(-c2nc3oc2C24c5ccccc5N[C@H]2Oc2ccc(cc24)C[C@H](NC(=O)[C@@H](O)C(C)C)C(=O)N[C@H]3C(C)C)n1 (some centres unmarked) [Example 46],IC50,HCC461,344 nM
same,IC50,NCI-H460,245 nM
same,IC50,BT474,6 nM
same,IC50,A2058 cells; [2],0.044 µM
same,IC50,"A2058 cells; A2058, Tumor cell line A2058, origin Skin, read-out: IC50",0.044 µM
same,IC50,BxPC3,23 nM
same,IC50,U937 cells; [3],0.013 µM
same,IC50,"U937 cells; U-937, Tumor cell line U937, origin Blood, read-out: IC50",0.013 µM
same,IC50,OVCAR 3,32 nM
same,IC50,LOVO,148 nM
same,IC50,HT29,90 nM
same,IC50,HCC1437,63 nM
same,IC50,COLO205,147 nM
same,IC50,DU145,67 nM
same,IC50,HCT116,731 nM
same,IC50,A375,99 nM
CC(C)[C@H](O)C(=O)N[C@H]1Cc2ccc3c(c2)C2(C4=C(c5nc(CO)co5)N=C(O4)[C@H](C(C)C)NC1=O)c1ccccc1N[C@H]2O3 (some centres unmarked) [Example 73],maximum weight loss,[1],7.9%
same,"tumor size for treated animals, % of control",[1]; day 25,34.5 % of control
same,IC50,A2058 cells; [2],0.093 µM
same,IC50,U937 cells; [3],0.037 µM
COC(=O)c1nc([C@@H](NC(=O)[C@H](Cc2ccc(O)cc2)NC(=O)[C@@H](O)C(C)C)C(C)C)oc1-c1c[nH]c2ccccc12 [Example 89],IC50,A2058 cells; [4],> 1 µM
same,IC50,U937 cells; [5],> 1 µM
CC(C)[C@H](O)C(=O)N[C@H]1Cc2ccc3c(c2)C2(C4=C(c5ncc(-c6c[nH]c7c(O)cccc67)o5)N=C(O4)[C@H](C(C)C)NC1=O)c1ccccc1N[C@H]2O3 (some centres unmarked) [Example 90],IC50,A2058 cells; [2],0.994 µM
same,IC50,U937 cells; [3],> 1 µM
CC(C)[C@H](O)C(=O)N[C@H]1Cc2ccc3c(c2)C2(C4=C(c5ncc(-c6c[nH]c7ccccc67)o5)N=C(O4)[C@H](C(C)C)NC1=O)c1ccccc1N[C@H]2O3 (some centres unmarked) [Example 91],IC50,A2058 cells; [2],0.475 µM
same,IC50,U937 cells; [3],0.579 µM
COC(=O)c1nc2oc1[C@@]13c4cc(Cl)ccc4NC1Oc1ccc(cc13)C[C@H](NC(=O)[C@@H](O)C(C)C)C(=O)N[C@H]2C(C)C (some centres unmarked) [Example 93],IC50,A2058 cells; [2],> 1 µM
same,IC50,U937 cells; [3],> 1 µM
COC(=O)c1nc([C@@H](NC(=O)[C@H](Cc2ccccc2)NC(=O)[C@@H](O)C(C)C)C(C)C)oc1-c1c[nH]c2ccccc12 [Example 94],IC50,A2058 cells; [4],> 1 µM
same,IC50,U937 cells; [5],> 1 µM
COc1ccc(-c2cnc(-c3nc4oc3[C@@]35c6ccccc6NC3Oc3ccc(cc35)C[C@H](NC(=O)[C@@H](O)C(C)C)C(=O)NC4C(C)C)o2)cc1 (some centres unmarked) [Example 95],IC50,A2058 cells; [2],> 1 µM
same,IC50,U937 cells; [3],> 1 µM
